Data published in ChEMBL document CHEMBL1201862, “PubChem BioAssay data set” (2004).
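These data come from cells grown in 96-well plates and exposed to compound for 48 hours at five concentrations. Here, GI50 denotes the concentration required for 50% inhibition of growth.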 Active and inactive are the calls of the source. Cut-off read from the data, not from the text of the source: active = GI50 up to about 1.1 µM and inactive = higher.

What was measured:
Test in all cases: NCI tumour cell line growth inhibition, 48 h
[1] = tested on: 786-0
[2] = tested on: A498
[3] = tested on: A549
[4] = tested on: ACHN
[5] = tested on: BT-549
[6] = tested on: CAKI-1
[7] = tested on: CCRF-CEM
[8] = tested on: COLO 205
[9] = tested on: DU-145
[10] = tested on: EKVX
[11] = tested on: HCC 2998
[12] = tested on: HCT-116
[13] = tested on: HCT-15
[14] = tested on: HL-60
[15] = tested on: HOP-62
[16] = tested on: HOP-92
[17] = tested on: HT-29
[18] = tested on: Hs-578T
[19] = tested on: IGROV-1
[20] = tested on: K562
[21] = tested on: KM12
[22] = tested on: LOX IMVI
[23] = tested on: M14
[24] = tested on: MCF7
[25] = tested on: MDA-MB-231
[26] = tested on: MDA-MB-435
[27] = tested on: MDA-N
[28] = tested on: MOLT-4
[29] = tested on: Malme-3M
[30] = tested on: NCI-H226
[31] = tested on: NCI-H23
[32] = tested on: NCI-H460
[33] = tested on: NCI-H522
[34] = tested on: NCI/ADR-RES
[35] = tested on: OVCAR-3
[36] = tested on: OVCAR-4
[37] = tested on: OVCAR-5
[38] = tested on: OVCAR-8
[39] = tested on: PC-3
[40] = tested on: RPMI-8226
[41] = tested on: RXF 393
[42] = tested on: SF-268
[43] = tested on: SF-295
[44] = tested on: SF-539
[45] = tested on: SK-MEL-28
[46] = tested on: SK-MEL-2
[47] = tested on: SK-MEL-5
[48] = tested on: SK-OV-3
[49] = tested on: SN12C
[50] = tested on: SNB-19
[51] = tested on: SNB-75
[52] = tested on: SR
[53] = tested on: SW-620
[54] = tested on: T47D
[55] = tested on: TK-10
[56] = tested on: U-251
[57] = tested on: UACC-257
[58] = tested on: UACC-62
[59] = tested on: UO-31

In the case of `CC(C)[Si]1(C(C)C)OCC2OC(n3c(C(=O)c4ccccc4)cc(=O)[nH]c3=O)CC2O[Si](C(C)C)(C(C)C)O1` (centres undefined), the GI50 [1] was 3.05 µM (inactive), the GI50 [2] was 11.4 µM (inactive) and the GI50 [3] was 7.28 µM (inactive). For the same compound, the GI50 [4] was 3.16 µM (inactive), the GI50 [5] was 4.69 µM (inactive) and the GI50 [6] was 5.53 µM (inactive). For the same compound, the GI50 [7] was 2.12 µM (inactive), the GI50 [8] was 3.72 µM (inactive) and the GI50 [9] was 11.6 µM (inactive). The GI50 [10] was 3.71 µM (inactive), the GI50 [11] was 1.65 µM (inactive) and the GI50 [12] was 3.15 µM (inactive). For the same compound, the GI50 [13] was 2720 nM, the GI50 [14] was 2.67 µM (inactive) and the GI50 [15] was 7.03 µM (inactive). The GI50 [16] was 2.33 µM (inactive), the GI50 [17] was 1.9 µM (inactive) and the GI50 [18] was 2.26 µM (inactive). The GI50 [19] was 3.28 µM (inactive), the GI50 [20] was 3.05 µM (inactive) and the GI50 [21] was 2.31 µM (inactive). For the same compound, the GI50 [22] was 2 µM (inactive), the GI50 [23] was 3.66 µM (inactive) and the GI50 [24] was 2.94 µM (inactive). For the same compound, the GI50 [25] was 2.37 µM (inactive), the GI50 [26] was 3.1 µM (inactive) and the GI50 [27] was 3.2 µM (inactive). For the same compound, the GI50 [28] was 1.88 µM (inactive), the GI50 [29] was 3.75 µM (inactive) and the GI50 [30] was 2.94 µM (inactive). The GI50 [31] was 2.52 µM (inactive), the GI50 [32] was 3.58 µM (inactive) and the GI50 [33] was 1.7 µM (inactive). The GI50 [34] was 10.2 µM (inactive), the GI50 [35] was 2.08 µM (inactive) and the GI50 [36] was 2.93 µM (inactive). The GI50 [37] was 3.4 µM (inactive), the GI50 [38] was 1.99 µM (inactive) and the GI50 [39] was 2.2 µM (inactive). The GI50 [40] was 2.85 µM (inactive), the GI50 [41] was 2.54 µM (inactive) and the GI50 [42] was 2.78 µM (inactive). For the same compound, the GI50 [43] was 3.78 µM (inactive), the GI50 [44] was 2.88 µM (inactive) and the GI50 [45] was 3.72 µM (inactive). For the same compound, the GI50 [46] was 5.05 µM (inactive), the GI50 [47] was 4.37 µM (inactive) and the GI50 [48] was 11.9 µM (inactive). The GI50 [49] was 2.39 µM (inactive), the GI50 [50] was 7.71 µM (inactive) and the GI50 [51] was 3.02 µM (inactive). For the same compound, the GI50 [52] was 2.61 µM (inactive), the GI50 [53] was 2.81 µM (inactive) and the GI50 [54] was 4.36 µM (inactive). The GI50 [55] was 3.24 µM (inactive), the GI50 [56] was 3.15 µM (inactive) and the GI50 [57] was 2.34 µM (inactive). The GI50 [58] was 2.81 µM (inactive) and the GI50 [59] was 2.47 µM (inactive).
